# Laboratory results published in a melting point compilation (Tetko et al.; mined from patent text by program, amines drawn as free bases though some values may be those of a salt).
row,melting point [°C],Compound
1,208 to 209,C#Cc1c(NC)c(F)cc2c(=O)c(C(=O)O)cn(-c3cc(N)c(F)cc3F)c12
2,102,O=C1c2cccc(N3CCCC3)c2OC12CC2
3,83 to 85,FC(F)(F)c1cccc(-n2cnnc2Oc2ccccc2)c1
4,145 to 148,COc1ccc(N2CCN(c3c(C)c(C)c4c(c3C)CC(C)(CN(C)C)O4)CC2)cc1 (centres undefined)
5,128 to 130,O=C(c1cccnc1)N1CCC(c2ccc(F)cc2)=N1
6,295 to 297,CN1C(=O)CCCc2cc(Nc3ncc(Cl)c(Nc4ccc(N5CCCCC5)cc4C(N)=O)n3)ccc21
7,200 to 202,C=CC(=O)NCCOc1ccc2c(c1)nc(N)c1nc(CCC)sc12
8,76.5 to 77.5,CC1=C(c2ccccc2)C(=O)N(C(C)(C)C(=O)Cc2cc(F)cc(F)c2)CO1
9,153 to 156,C[C@@H](O)c1nccc(N2CCN(c3nc4cccnc4o3)CC2)n1
10,256 to 257,CC1(C)C(=O)Oc2ccc3ccc(Cn4cnnc4)cc3c21
11,179 to 181,CC(C)n1nc(C(=O)NCC2CCN(CCc3ccc(C(=O)O)cc3)CC2)c2ccccc21
12,187 to 188,COc1nc(C)nc(NC(=O)NS(=O)(=O)c2csc3ccccc23)n1
13,245 to 246,CC(C)n1nc(-c2sc(NC(=O)c3ccccn3)nc2-c2ccccc2)ccc1=O
14,153 to 154,CON(Cc1ccccc1C)C(=O)C1=C(O)C(=O)N(C)C1
15,195 to 196,Oc1ccc2c(c1)SCCc1c-2n(CCCCCN2CCCCC2)c2ccc(O)cc12
16,218,CN1CC=C(C2=C(C#N)C(c3cccc4nonc34)c3c[nH]nc3N2)CC1 (centres undefined)
17,278,O=C1OC(=O)c2cc3c(ccc4ccccc43)cc21
18,77 to 78,C=C(C(=O)c1ccc(OC)c(OC)c1)c1ccc(F)cc1
19,64 to 66,COc1c2c(c(OC)c(OC)c1OC)CCC(CCO)CC2

row,melting point [°C],Compound
1,197 to 200,Nc1nc(=O)n(CCCCn2cncn2)cc1F
2,> 320,N#Cc1ccc(Cn2c(=O)sc3c(=O)[nH]c(N)nc32)cc1
3,128 to 130,CCOC(=O)COc1ccc(C(=O)Nc2ccccc2S(=O)c2ccccc2C#N)cc1 (centres undefined)
4,105,CCCCC(=O)OCC1OC(n2cnc3c(OC)nc(N)nc32)C(O)C1O (centres undefined)
5,222 to 223,CC(=O)CNC(=O)c1cc2c(nc(C)n2C)c2c1CCC1(Cc3ccccc3C1)N2
6,152 to 153,COC(=O)c1nc(I)cc(N)c1Cl
7,102 to 103,CCOC(=O)/C=C/C=Cc1ccc(OCCc2nc(-c3ccccc3)oc2C)cc1
8,171 to 173,CCNc1nc(OC)c(C(=O)NC2CCN(C3CCCCC3)C2)nc1Cl (centres undefined)
9,134 to 136,CCc1nn(C2CCCC2)c2cc(C(=O)NCCC(=O)NOCc3ccccc3)ccc12
10,277 to 278,CC(C)(C)C(=O)c1c[nH]c2ncc(-c3ccc(S(N)(=O)=O)cc3)nc12
11,201 to 202,CC(C=Cc1c(C)cc(C)c(C)c1C)=CC=CC(C)=CC(=O)O
12,174 to 175,COc1ccc(CNc2nn(CC(=O)OC(C)(C)C)c(=O)c3ccc(C#N)cc23)cc1Cl
13,85 to 88,CC(C)CN1CCN(CCc2ccc(-c3cccc(N)n3)cc2)CC1
14,240 to 244,O=C(Nc1ccc(-c2c[nH]c(=O)cn2)cc1)OCc1ccccc1
15,156 to 158,CC(C)C[C@H](NC(=O)[C@H](Cc1ccccc1)NC(=O)CCC(=O)O)C(=O)O
16,94 to 95,COCCN(CCOC)c1ccc(Nc2ncc3c(C)c(Br)c(=O)n(C4CCCC4)c3n2)nc1
17,180,N#Cc1cc(C(=O)O)ccc1Cl
18,304 to 306,CC(C)CCNC(=O)c1cc2c(Nc3cccc(Cl)c3)ncnc2[nH]1
19,260 to 263,CN1CCN(c2ccnc3sc(C(N)=O)c(N)c23)CC1

row,melting point [°C],Compound
1,157 to 159,CCOC(=O)c1cc(=O)c(O)c(-c2ccc(Cl)cc2)o1
2,162 to 164,C#CCn1c(-c2ccc(OC)cc2)c([N+](=O)[O-])c2ccc(OC)cc2c1=O
3,113 to 115,Cc1ccc(Oc2ccc(C)cc2C(=O)O)cc1
4,242 to 243,NCC1CCCN(c2c(F)cc3c(=O)c(C(=O)O)cn(C4CC4)c3c2F)C1 (centres undefined)
5,105 to 106,COC(=O)C(=Cc1ccc(OC)c(OCCc2ccccc2)c1)C(=O)OC
6,312 to 313,Cc1c(/C=C/c2ccccc2)nc2ccc(C(=O)O)cn2c1=O
7,275,CC(=O)NC12CC1CN(c1nc3c(cc1F)c(=O)c(C(=O)O)cn3C1CC1)C2 (centres undefined)
8,275 to 278,CCCC(NC(=O)Nc1ccc(Cl)cc1)P(=O)(c1ccccc1)c1ccccc1 (centres undefined)
9,173 to 175,CCN1CCN(c2nc(-c3ccc(OC)cc3)nc3sc(C#N)c(C)c23)CC1
10,177 to 180,O=C(O)CCCn1c(-c2ccc3c(c2)OCO3)nc2ccccc21
11,195 to 204,O=c1[nH]c2ccc(C3=NOC(CN4CCC(O)(Cc5ccc(F)cc5)CC4)C3)cc2o1 (centres undefined)
12,257 to 258,CC1=C([N+](=O)[O-])C(c2ccccc2C(F)(F)F)c2c[nH]nc2N1 (centres undefined)
13,219 to 220,O=c1c(Cc2ccccc2)c(-c2ncco2)n(-c2ccccc2)c2cc(Cl)ccc12
14,92.5 to 93.5,COc1ccc2c(c1)CCN2c1cccc(C#N)c1
15,235 to 236,CCCc1nn(C)c2c(=O)[nH]c(-c3cc(S(C)(=O)=O)ccc3OCC)nc12
16,144 to 145,OC1c2cc(OCc3nc4cc(F)ccc4s3)ccc2OCC1Oc1ccccc1 (centres undefined)
17,159 to 163,CC(C)CCCC(C)C1CCC2C3CC=C4CC(Oc5ccc(N)cc5N)CCC4(C)C3CCC12C (centres undefined)
18,151 to 152,Cc1onc(-c2c(Cl)cccc2Cl)c1CSc1ccc(OCC(=O)O)c2c1CCC2
19,92.5,O=C1N(c2cc(Cl)cc(Cl)c2)C(=O)C2(Cc3ccc(Br)cc3)CNCCN12 (centres undefined)

# Continued, compound first:
row,Compound,melting point [°C]
1,CNC(=O)N(Cc1ccc(C(C)(C)C)cc1)NC(=O)OC(C)(C)C,124 to 129
2,Clc1ccc(Br)c2nc(SCc3ccccc3)nn12,122 to 124
3,CC(C)NCC(O)COc1ccc(NC(=O)N(C)C)cc1Cl (centres undefined),130
4,COC(=O)c1cc(OCCCCCCOc2ccc(-c3ccccc3)cc2)ccc1OCc1ccccc1,85 to 87
5,Cc1sc(N)c(C(=O)c2ccc(Br)s2)c1C,128 to 130
6,COc1ccc2c(c1)C13CCN(C)C(C2)C1(OC)CCC(=O)C3 (centres undefined),152 to 156
7,OC(CCCN1CC=C(c2ccc(Cl)cc2)CC1)c1ccc(F)cc1 (centres undefined),103 to 105
8,NC(=O)Cc1ccc(-c2nc3ccccc3o2)cc1,251 to 255
9,CCCN(CCC)C1Cc2c[nH]c3ccc(C(=O)C(C)(C)C)c(c23)C1 (centres undefined),92
10,Clc1ccc(-c2nn(-c3ccc(Br)cc3)cc2CCc2nnn[nH]2)cc1,164 to 166
11,CCCCCc1ccc(-c2ccc(-c3ccc(C)cc3)s2)cc1F,115
12,Cn1cncc1C(N)(c1ccoc1)c1ccc2c(c1)c(-c1cccc(Cl)c1)cc(=O)n2C (centres undefined),197
13,CCOCCOc1ccc(-c2nc(C(=O)Nc3nccs3)c(-c3ccc(Cl)cc3)[nH]2)cc1,115
14,COC(=O)C=Cc1ccc(-c2ccc(OC(F)(F)F)cc2)cc1,98 to 100
15,CCOC(=O)c1c(C)cc2nc(C)n(-c3ccccc3C)c(=O)c2c1C,129 to 130
16,Clc1ccc2c(c1)CSCCCN2,54 to 55
17,Cn1nc([N+](=O)[O-])nc1Br,90.5 to 91.5
18,CCCCCCCCCCCC(=O)OC1CC(c2ccccc2)N(O)C(c2ccccc2)C1C (centres undefined),84 to 91
19,CCOP(=O)(Cc1ccc(NC(=O)CCc2c(C)noc2-c2ccccc2)cc1)OCC,114 to 115
20,CCCC(CCC)(CCC)NC(=O)N(C)C,88
21,O=Cc1cn(Cc2ccc(OCc3csc(-c4ccccc4)n3)cc2)nc1-c1cccs1,115 to 116
22,N#Cc1ccc(OCCCC(=O)O)cc1,210
23,CCOC(=O)c1[nH]c(=O)[nH]c(=O)c1[N+](=O)[O-],259
24,CCOC(=O)C(NO)NC(C)=O (centres undefined),119 to 121

row,Compound,melting point [°C]
1,CCC(O)(c1ccccc1)c1ccccc1,93 to 94
2,O=C(NN=Cc1c(O)cccc1Cl)c1ccc(Cl)cc1,273 to 277
3,COc1ccc(OC)c2c(C=O)c3ccccc3c(C=O)c12,208 to 212
4,c1ccc(C(c2ccc3nccnc3c2)n2cnnc2)cc1 (centres undefined),98.1
5,O=c1oc(-c2cccc(OC(F)(F)F)c2)cc(O)c1SCc1ccccc1,128 to 132
6,O=[N+]([O-])c1cccc(-n2cnc3c([N+](=O)[O-])cccc32)c1,159 to 161
7,CCCCCCCCCCCCCCOc1ccc(CCNC(=O)Cc2cccc(CBr)c2)cc1,75 to 77
8,CC(C)C#Cc1c(C#N)nn(-c2c(Cl)cc(C(F)(F)F)cc2Cl)c1N,210 to 212
9,CC(O)CCCCCCCCc1ccc(O)c(O)c1 (centres undefined),43 to 46
10,C=CCCC(C#N)(C#N)Cc1ccc(Cl)cc1,63.7
11,COc1ccc(C2=CCN(CCC(O)c3ccc(C#N)cc3)CC2)cc1 (centres undefined),144 to 145
12,CCCc1nc(C=O)c[nH]1,104 to 106
13,BrCc1ccc(-c2ccc(CBr)cn2)nc1,188
14,COC(=O)c1ccc(CCCCO)cc1,95.5 to 96
15,COCCc1nc(Cl)c(CO)[nH]1,91 to 95
16,CNc1cc(NS(=O)(=O)c2ccc(C)cc2)nc(NC)n1,270 to 272
17,CC(=O)NCc1nnc(S)s1,200 to 203
18,Nc1cc(Cl)cc(Cl)c1C(=O)NCc1ccccc1Br,163 to 167
19,CCCCCCCCCCCCCCCCC(COC(C)=O)(COC(C)=O)NC(C)=O,84 to 86
20,O=[N+]([O-])c1ccc(Sc2ccc(OCC3CO3)cc2)cc1 (centres undefined),96 to 99
21,COc1cc2c(cc1Br)CC/C2=C\C#N,180 to 182
22,CCCCCCCCCCCCCCCCCCOc1cc(OCCCCCCc2cccc(O)c2O)cc(C(=O)O)c1,92 to 94
23,Cc1c(OCCCSc2ccc3ncc([N+](=O)[O-])n3n2)ccnc1CO,135 to 136
